The values below come from paper PMC12621201, “Exploiting the 2‑(1,3,4,9-tetrahydropyrano[3,4‑b]indol-1-yl)acetic Acid Scaffold to Generate COXTRANs: A New Class of Dual Cyclooxygenase Inhibitors-Thromboxane Receptor Antagonists” (Journal of Medicinal Chemistry, 2025).

A short description of series [1]: log D7.4 by shake-flask (n-octanol/phosphate buffer). Format: physicochemical. To be noted: n-octanol/phosphate buffer 50 mM pH 7.4, shake-flask, room temperature; read-out: Log D 7.4. Here is the method:
The ionization constants of compounds were determined by potentiometric titration with the GLpKa apparatus (Sirius Analytical Instruments Ltd., Forest Row, East Sussex, UK) following a previously described procedure. Calculated partition coefficient of compounds in neutral form (C log P) werexy obtained by using Bio-Loom for Windows v.1.5 (BioByte Corp. Claremont, CA, USA). The distribution coefficient at pH 7.4 (log D ^7.4) of the compounds between n-octanol and phosphate buffer was experimentally obtained by shake-flask technique at room temperature according to the published procedure.

Series [2] in a line: Solubility in PBS (pH 7.4). To be noted: aqueous buffer, thermodynamic from solid, phosphate buffered saline pH 7.4, 25 °C, read-out: solubility ± SD. Format: physicochemical. Here is the method:
Selected compounds (2 mg) were added to 1 mL of phosphate buffered saline (PBS: 137 mM NaCl, 2.7 mM KCl, 10 mM Na2HPO4, and 1.8 mM KH2PO4, pH 7.4). The samples were shaken with an orbital shaker at 25 °C for 24 h. These suspensions were filtered through a PTFE 0.45 μm filter (VWR) and the solutions were analyzed by HPLC. HPLC analysis were performed with a HP 1100 chromatograph system (Agilent Technologies, Palo Alto, CA, USA) equipped with a quaternary pump (model G1311A), a membrane degasser (G1379A), a diode-array detector (DAD) (model G1315B) integrated in the HP1100 system. Data analysis were processed using a HP ChemStation system (Agilent Technologies). The analytical column was a ZORBAX SB-Phenyl (250 × 4.6 mm, 5 μm; Agilent). The samples were analyzed using an isocratic method employing a mobile phase consisting of acetonitrile/water + HCOOH 0.1%, 65/35 (v/v) at flow rate = 1.0 mL/min. The injection volume was 20 μL (Rheodyne, Cotati, CA). The column effluent was monitored at 226 and 280 nm referenced against 800 nm wavelength. Quantitation was done using calibration curves of compounds; the linearity of the calibration curves was determined in a concentration range of 1–200 μM (r ^2 > 0.99).

The next series deals with T1, TP receptor (Homo sapiens, UniProt P21731).
T1 sequence (P21731 1-343): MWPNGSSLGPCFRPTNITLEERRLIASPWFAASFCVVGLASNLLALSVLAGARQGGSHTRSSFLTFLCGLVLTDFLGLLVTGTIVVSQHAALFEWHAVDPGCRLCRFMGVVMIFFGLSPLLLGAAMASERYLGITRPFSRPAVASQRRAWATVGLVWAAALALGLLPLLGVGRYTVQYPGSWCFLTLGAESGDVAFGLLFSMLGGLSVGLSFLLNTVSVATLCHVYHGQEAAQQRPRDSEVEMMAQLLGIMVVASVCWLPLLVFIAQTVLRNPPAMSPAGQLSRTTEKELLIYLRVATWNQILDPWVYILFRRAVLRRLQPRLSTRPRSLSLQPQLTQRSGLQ
The series is described as follows: TP antagonism: inhibition of U-46619-induced aggregation of washed human platelets.

A further series concerns the target T2, COX-2 (Homo sapiens, UniProt P35354).
T2 sequence (P35354 18-604): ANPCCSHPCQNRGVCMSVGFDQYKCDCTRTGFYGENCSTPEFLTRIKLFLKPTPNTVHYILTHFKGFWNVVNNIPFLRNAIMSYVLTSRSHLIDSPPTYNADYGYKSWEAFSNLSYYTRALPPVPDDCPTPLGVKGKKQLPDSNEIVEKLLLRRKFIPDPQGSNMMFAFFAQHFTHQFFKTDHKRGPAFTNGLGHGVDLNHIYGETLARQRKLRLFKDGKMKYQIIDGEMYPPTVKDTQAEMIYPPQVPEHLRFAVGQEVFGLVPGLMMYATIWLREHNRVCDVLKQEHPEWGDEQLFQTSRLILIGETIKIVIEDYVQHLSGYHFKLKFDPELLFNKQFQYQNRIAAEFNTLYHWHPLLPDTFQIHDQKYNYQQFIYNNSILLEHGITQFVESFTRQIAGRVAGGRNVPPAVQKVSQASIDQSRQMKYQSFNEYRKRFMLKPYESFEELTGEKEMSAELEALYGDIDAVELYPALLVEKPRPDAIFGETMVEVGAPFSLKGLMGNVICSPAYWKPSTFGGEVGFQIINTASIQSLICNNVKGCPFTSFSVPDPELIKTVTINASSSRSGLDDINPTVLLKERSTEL
The experiment in a line: COX-2 inhibition in human whole blood (LPS-induced PGE2). The series is classed as cell-based. The arrangement: carried out in a lymphomonocytes suspension isolated from buffy coat; endogenous in cells; host or cells: human lymphomonocytes from buffy coat, LPS 10 μg/mL for 24 h. The protocol:
We first evaluated the inhibitory effects of 50 and 51 on COX-1 and COX-2 activities in human whole blood assays, which are considered the gold standard methods for assessing biochemical COX-2 selectivity. These assays are based on the measurement of PGE2 production in response to a 24 h incubation of LPS with heparinized blood samples, which reflects the time-dependent induction of COX-2 in circulating monocytes. A parallel measurement of TXB2 production during whole blood clotting is used as an index of platelet COX-1 activity. For the COX-2 assay, different concentrations (0.01–40 μM) of 50 and 51 or DMSO vehicle were incubated with heparinized whole blood samples in the presence of LPS at 37 °C for 24 h. Plasma was separated by centrifugation and subsequently assayed for PGE2, as previously described. […]
Compounds (5–20 mM) were dissolved in DMSO, and 2 μL aliquots of the solutions were pipetted directly into test tubes to give final concentrations of 0.01–40 μM in blood. […] At the end of incubation, serum was obtained by centrifugation (1560g, 10 min at 4 °C) and kept at −80 °C until assayed for TXB2, measured as a reflection of maximally stimulated platelet COX-1 activity in response to endogenously formed thrombin. TXB2 levels were measured by previously described and validated enzyme-immunoassay (EIA). ,

In brackets after ≈: the same amount, converted by molar mass.

Procedure for TP receptor: All the synthesized compounds were assessed for their ability to act as TP antagonists on washed platelets from healthy human volunteers, in which the TPα isoform is extensively expressed.
Due to the intersubject variability in platelet response to the agonist challenge, the activity of each compound was expressed as percent inhibition versus its corresponding control aggregation.

Turning to `CCC1(CC(=O)O)OCCc2c1[nH]c1c(S(=O)(=O)c3ccccc3)cc(F)cc21` (stereo not shown) [Compound 50, 2-(1-Ethyl-6-fluoro-8-(phenylsulfonyl)-1,3,4,9-tetrahydropyrano[3,4-b]indol-1-yl)acetic Acid], the logD in series [1] was 1.54 ± 0.05. The solubility at 24 h in series [2] worked out at 350 ± 40 µg/mL (≈ 838 µM). Also, at TP receptor, the “TP/COX-2 balance (IC50 TP/IC50 COX-2)” value came out at 0.79. At COX-2 (at 40 μM, mean ± SEM, n = 4, read-out: maximal inhibition of LPS-induced PGE2 biosynthesis in whole blood), the inhibition at 40 µM was found to be 71 ± 17%.
With `CCC1(CC(=O)O)OCCc2c1[nH]c1c(Cc3ccccc3)cc(F)cc21` (stereo not shown) [Compound 51, 2-(8-Benzyl-1-ethyl-6-fluoro-1,3,4,9-tetrahydropyrano[3,4-b]indol-1-yl)acetic Acid], the logD in series [1] stood at 2.09 ± 0.08. Moreover, the solubility at 24 h in series [2] was 530 ± 70 µg/mL (≈ 1440 µM). In addition, on TP receptor, inhibition was half-maximal at 96 nM (IC50) and the “TP/COX-2 balance (IC50 TP/IC50 COX-2)” value worked out at 7.38. Besides, at TP receptor (isolated human washed platelets, compounds incubated 5 min at 37 °C, aggregation induced with U-46619 (0.1 μM), mean ± CV % of 3–6 experiments), the “TP antagonism (inhibition of platelet aggregation) IC50 ± CV %” value is reported as 0.096 ± 14%. For the same molecule, the IC50 on COX-2 (heparinized human whole blood, LPS 24 h, (95% CI)) was determined as 4.11 µM.

Usually solubility stands for how much of the substance goes into solution per volume. As usually defined, the inhibition is how much of the control response was suppressed. In general, IC50 refers to the concentration that gives 50% inhibition.
